Assay results taken from article PMC11522901, “Translation of Deoxyribonucleic Acid into Synthetic Alpha Helical Peptides for Darwinian Evolution” (JACS Au, 2024).
*1 amine or outer side, *2 acyl side, *3 side chain or, on linkers, in order; H or OH if unused. Where a SMILES comes first, the peptide text is derived from it. Bridges are numbered along the chain shown (N, C = ends). [ ]: non-standard residue; d: D form. Diglycolyl = O=C(COCC(=O)[*:2])[*:1]; Cba = N[C@@H](CC1CCC1)C(=O)O; Nle = CCCC[C@H](N)C(=O)O

Target: T1, MDM2 (Homo sapiens, UniProt Q00987)
T1 construct: made in house
T1 sequence (Q00987 whole entry, species assumed): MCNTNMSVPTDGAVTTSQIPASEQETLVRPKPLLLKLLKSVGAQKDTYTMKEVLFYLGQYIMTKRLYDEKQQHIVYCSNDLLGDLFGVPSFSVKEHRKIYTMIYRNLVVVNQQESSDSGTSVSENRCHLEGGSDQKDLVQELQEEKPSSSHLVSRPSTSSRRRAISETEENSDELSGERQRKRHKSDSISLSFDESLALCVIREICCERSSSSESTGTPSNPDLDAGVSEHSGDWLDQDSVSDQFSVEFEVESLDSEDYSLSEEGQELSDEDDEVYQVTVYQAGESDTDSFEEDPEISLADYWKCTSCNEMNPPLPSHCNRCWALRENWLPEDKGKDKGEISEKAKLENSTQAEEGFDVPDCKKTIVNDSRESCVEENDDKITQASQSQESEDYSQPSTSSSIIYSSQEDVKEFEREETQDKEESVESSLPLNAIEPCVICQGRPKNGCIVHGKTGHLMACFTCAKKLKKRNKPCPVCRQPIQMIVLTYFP
Test: Surface plasmon resonance (SPR) against captured GST-MDM2
Format: binding
Conditions: for koff / kon: SPR Biacore T200, 25 °C, PBS-P+, GST-MDM2 captured via anti-GST antibody on CM5 chip, 2-fold dilutions 250 nM to 3.91 nM, association 250 s, dissociation 400 s
Method: SPR experiments were performed on a Biacore T200 instrument (GE Healthcare) at 25 °C in PBS-P+ buffer (10× stock; Cytiva Life Sciences #28995084). One mL PP 96-well plates (Greiner #780201) were used for dilution directly in the plates. Anti-GST antibody (Cytiva #27457701) was chemically immobilized on a CM5 series S sensor chip (Cytiva Life Sciences #29149604) by EDC/NHS-mediated coupling. For this, an amine coupling kit (Cytiva Life Sciences #BR100633) and the recommended protocol were followed with the following specifications: 20 μg/mL of antibody diluted in 10 mM NaAc pH 5.0 buffer flowed over both flow channels for 600 s (flow rate 10 μL min^–1).
Kinetic measurements consisted of ligand capture of GST-MDM2 (200 nM, 350 s injection, flow rate 10 μL min^–1, stabilization 60 s), followed by injections (association, 250 s; dissociation, 400 s; flow rate, 30 μL min^–1) of decreasing concentrations of compounds (2-fold cascade dilutions from the starting concentration). The chip was regenerated between cycles by one injection of regeneration solution (10 mM glycine-HCl at pH 1.5) for 10 s at a flow rate of 30 μL min^–1, followed by a 120 s stabilization period. Binding was measured as resonance units over time after blank subtraction, and the data were interpreted using Biacore T200 software (version 3.2). The KD values were calculated based on steady-state affinity (1:1 binding). […]
5. Surface Plasmon Resonance Results […]
dotted lines representing the fittings from which the kinetic values are calculated. The compounds […]
shown in Figure 6 are tested at 250 nM (highest concentration) with a 2-fold dilution series until 3.91 nM (lowest concentration).
SPR Curves of compounds 4.1 and 4.4
4.1: Concentrations tested: 125 nM to 3.91 nM (2-fold dilutions) – KD: ND
Supplementary Figure 4. SPR curve of compound 4.1 against MDM2

Question: For `CCCC[C@H](NC(=O)[C@H](CC(C)C)NC(=O)[C@H](CCC(N)=O)NC(=O)[C@H](C)NC(=O)[C@H](Cc1c[nH]c2ccccc12)NC(=O)[C@H](Cc1ccc(O)cc1)NC(=O)[C@H](CCC(N)=O)NC(=O)[C@H](CCCC)NC(=O)[C@H](Cc1ccccc1)NC(=O)[C@@H](NC(=O)[C@H](CC(C)C)NC(=O)CNC(=O)CN(CCNC(=O)CN(CCNC(=O)CN(CCNC(=O)CN(CCNC(=O)[C@H](CCCNC(=N)N)NC(=O)COCCOCCNC(=O)[C@H](CCCNC(=N)N)NC(=O)CN(CCNC(=O)CN(CCNC(=O)CN(CCNC(=O)CN(CCNC(=O)CN(CCNC(=O)CN(CCNC(=O)CN(CCNC(=O)CN(CCNC(=O)[C@H](CCCNC(=N)N)NC(C)=O)C(=O)Cn1cnc2c(=O)[nH]c(N)nc21)C(=O)Cn1ccc(N)nc1=O)C(=O)Cn1ccc(N)nc1=O)C(=O)Cn1cnc2c(=O)[nH]c(N)nc21)C(=O)Cn1cc(C)c(=O)[nH]c1=O)C(=O)Cn1cnc2c(N)ncnc21)C(=O)Cn1cnc2c(=O)[nH]c(N)nc21)C(=O)Cn1cnc2c(=O)[nH]c(N)nc21)C(=O)Cn1ccc(N)nc1=O)C(=O)Cn1ccc(N)nc1=O)C(=O)Cn1cc(C)c(=O)[nH]c1=O)C(=O)Cn1cnc2c(N)ncnc21)[C@@H](C)O)C(=O)N[C@@H](CO)C(=O)NCC(=O)NCCN(CC(=O)NCCN(CC(=O)NCCN(CC(=O)NCCN(CC(=O)N[C@@H](CCCNC(=N)N)C(N)=O)C(=O)Cn1ccc(N)nc1=O)C(=O)Cn1cnc2c(=O)[nH]c(N)nc21)C(=O)Cn1cnc2c(=O)[nH]c(N)nc21)C(=O)Cn1ccc(N)nc1=O` [2.1 (PNA)], which koff is on record?
Answer: 0.0021 s⁻¹

Question: What about the kon of the same compound?
Answer: 1e+06 M⁻¹ s⁻¹

Question: Which results are given for `CCCC[C@@H]1NC(=O)[C@H](CC2CCC2)NC(=O)[C@H](CCC(N)=O)NC(=O)[C@H](C)NC(=O)[C@H](Cc2c[nH]c3ccccc23)NC(=O)[C@H](Cc2ccc(O)cc2)NC(=O)[C@H](CCC(N)=O)NC(=O)[C@H](CCCC)NC(=O)[C@H](Cc2ccccc2)NC(=O)[C@H]([C@@H](C)O)NC(=O)[C@H](CC(C)C)NC(=O)CNC(=O)COCC(=O)NCCCC[C@@H](C(=O)N[C@@H](CCCNC(=N)N)C(N)=O)NC(=O)CNC(=O)[C@H](CO)NC1=O` [1.1 (Cyclic)] (GLTF[Nle]QYWAQ[Cba][Nle]SGKR-NH2; linker N-15 via Diglycolyl; C-terminus assumed)?
Answer: koff: 0.0024 s⁻¹; kon: 320000 M⁻¹ s⁻¹

Question: For `CCCC[C@H](NC(=O)[C@H](CC1CCC1)NC(=O)[C@H](CCC(N)=O)NC(=O)[C@H](C)NC(=O)[C@H](Cc1c[nH]c2ccccc12)NC(=O)[C@H](Cc1ccc(O)cc1)NC(=O)[C@H](CCC(N)=O)NC(=O)[C@H](CCCC)NC(=O)[C@H](Cc1ccccc1)NC(=O)[C@@H](NC(=O)[C@H](CC(C)C)NC(=O)CNC(C)=O)[C@@H](C)O)C(=O)N[C@@H](CO)C(=O)NCC(=O)N[C@@H](CCCNC(=N)N)C(N)=O` [1.1 (Linear)] (Ac-GLTF[Nle]QYWAQ[Cba][Nle]SGR-NH2; N-terminus and C-terminus assumed), which koff is on record?
Answer: 0.0022 s⁻¹

Question: What about the kon of the same compound?
Answer: 73000 M⁻¹ s⁻¹

Question: What about the loss of binding (linear peptide without PNA versus PNA-constrained 1.1, 30 versus 0.7 nM) of the same compound?
Answer: 40 fold

Question: What does the source list for `CCCC[C@H](NC(=O)[C@H](CC1CCC1)NC(=O)[C@H](CCC(N)=O)NC(=O)[C@H](C)NC(=O)[C@H](Cc1c[nH]c2ccccc12)NC(=O)[C@H](Cc1ccc(O)cc1)NC(=O)[C@H](CCC(N)=O)NC(=O)[C@H](CCCC)NC(=O)[C@H](Cc1ccc(F)c(F)c1)NC(=O)[C@@H](NC(=O)[C@H](CC(C)C)NC(=O)CNC(=O)CN(CCNC(=O)CN(CCNC(=O)CN(CCNC(=O)CN(CCNC(=O)[C@H](CCCNC(=N)N)NC(=O)COCCOCCNC(=O)[C@H](CCCNC(=N)N)NC(=O)CN(CCNC(=O)CN(CCNC(=O)CN(CCNC(=O)CN(CCNC(=O)CN(CCNC(=O)CN(CCNC(=O)CN(CCNC(=O)CN(CCNC(=O)[C@H](CCCNC(=N)N)NC(C)=O)C(=O)Cn1cnc2c(=O)[nH]c(N)nc21)C(=O)Cn1ccc(N)nc1=O)C(=O)Cn1ccc(N)nc1=O)C(=O)Cn1cnc2c(=O)[nH]c(N)nc21)C(=O)Cn1cc(C)c(=O)[nH]c1=O)C(=O)Cn1cnc2c(N)ncnc21)C(=O)Cn1cnc2c(=O)[nH]c(N)nc21)C(=O)Cn1cnc2c(=O)[nH]c(N)nc21)C(=O)Cn1ccc(N)nc1=O)C(=O)Cn1ccc(N)nc1=O)C(=O)Cn1cc(C)c(=O)[nH]c1=O)C(=O)Cn1cnc2c(N)ncnc21)[C@@H](C)O)C(=O)N[C@@H](CO)C(=O)NCC(=O)NCCN(CC(=O)NCCN(CC(=O)NCCN(CC(=O)NCCN(CC(=O)N[C@@H](CCCNC(=N)N)C(N)=O)C(=O)Cn1ccc(N)nc1=O)C(=O)Cn1cnc2c(=O)[nH]c(N)nc21)C(=O)Cn1cnc2c(=O)[nH]c(N)nc21)C(=O)Cn1ccc(N)nc1=O` [1.2 (PNA)]?
Answer: koff: 0.002 s⁻¹; kon: 1.2e+06 M⁻¹ s⁻¹

Question: How did the koff turn out when `CCCC[C@H](NC(=O)[C@H](CC(C)C)NC(=O)[C@H](CCC(N)=O)NC(=O)[C@H](C)NC(=O)[C@H](Cc1c[nH]c2ccccc12)NC(=O)[C@H](Cc1ccc(O)cc1)NC(=O)[C@H](CCC(N)=O)NC(=O)[C@H](CCCC)NC(=O)[C@H](Cc1ccc(F)c(F)c1)NC(=O)[C@@H](NC(=O)[C@H](CC(C)C)NC(=O)CNC(=O)CN(CCNC(=O)CN(CCNC(=O)CN(CCNC(=O)CN(CCNC(=O)[C@H](CCCNC(=N)N)NC(=O)COCCOCCNC(=O)[C@H](CCCNC(=N)N)NC(=O)CN(CCNC(=O)CN(CCNC(=O)CN(CCNC(=O)CN(CCNC(=O)CN(CCNC(=O)CN(CCNC(=O)CN(CCNC(=O)CN(CCNC(=O)[C@H](CCCNC(=N)N)NC(C)=O)C(=O)Cn1cnc2c(=O)[nH]c(N)nc21)C(=O)Cn1ccc(N)nc1=O)C(=O)Cn1ccc(N)nc1=O)C(=O)Cn1cnc2c(=O)[nH]c(N)nc21)C(=O)Cn1cc(C)c(=O)[nH]c1=O)C(=O)Cn1cnc2c(N)ncnc21)C(=O)Cn1cnc2c(=O)[nH]c(N)nc21)C(=O)Cn1cnc2c(=O)[nH]c(N)nc21)C(=O)Cn1ccc(N)nc1=O)C(=O)Cn1ccc(N)nc1=O)C(=O)Cn1cc(C)c(=O)[nH]c1=O)C(=O)Cn1cnc2c(N)ncnc21)[C@@H](C)O)C(=O)N[C@@H](CO)C(=O)NCC(=O)NCCN(CC(=O)NCCN(CC(=O)NCCN(CC(=O)NCCN(CC(=O)N[C@@H](CCCNC(=N)N)C(N)=O)C(=O)Cn1ccc(N)nc1=O)C(=O)Cn1cnc2c(=O)[nH]c(N)nc21)C(=O)Cn1cnc2c(=O)[nH]c(N)nc21)C(=O)Cn1ccc(N)nc1=O` [2.2 (PNA)] was run?
Answer: 0.0029 s⁻¹

Question: What about the kon of the same compound?
Answer: 830000 M⁻¹ s⁻¹

Question: What does the source list for `CCCC[C@H](NC(=O)[C@H](CC1CCC1)NC(=O)[C@H](CCC(N)=O)NC(=O)[C@H](C)NC(=O)[C@H](Cc1c[nH]c2ccccc12)NC(=O)[C@H](Cc1ccc(O)cc1)NC(=O)[C@H](CCC(N)=O)NC(=O)[C@H](CCCC)NC(=O)[C@H](Cc1ccccc1)NC(=O)[C@@H](NC(=O)[C@H](CC(C)C)NC(=O)CNC(=O)CN(CCNC(=O)CN(CCNC(=O)CN(CCNC(=O)CN(CCNC(=O)[C@H](CCCNC(=N)N)NC(=O)COCCOCCNC(=O)[C@H](CCCNC(=N)N)NC(=O)CN(CCNC(=O)CN(CCNC(=O)CN(CCNC(=O)CN(CCNC(=O)CN(CCNC(=O)CN(CCNC(=O)CN(CCNC(=O)CN(CCNC(=O)[C@H](CCCNC(=N)N)NC(C)=O)C(=O)Cn1cnc2c(=O)[nH]c(N)nc21)C(=O)Cn1ccc(N)nc1=O)C(=O)Cn1ccc(N)nc1=O)C(=O)Cn1cnc2c(=O)[nH]c(N)nc21)C(=O)Cn1cc(C)c(=O)[nH]c1=O)C(=O)Cn1cnc2c(N)ncnc21)C(=O)Cn1cnc2c(=O)[nH]c(N)nc21)C(=O)Cn1cnc2c(=O)[nH]c(N)nc21)C(=O)Cn1ccc(N)nc1=O)C(=O)Cn1ccc(N)nc1=O)C(=O)Cn1cc(C)c(=O)[nH]c1=O)C(=O)Cn1cnc2c(N)ncnc21)[C@@H](C)O)C(=O)N[C@@H](CO)C(=O)NCC(=O)NCCN(CC(=O)NCCN(CC(=O)NCCN(CC(=O)NCCN(CC(=O)N[C@@H](CCCNC(=N)N)C(N)=O)C(=O)Cn1ccc(N)nc1=O)C(=O)Cn1cnc2c(=O)[nH]c(N)nc21)C(=O)Cn1cnc2c(=O)[nH]c(N)nc21)C(=O)Cn1ccc(N)nc1=O` [1.1 (PNA)]?
Answer: koff: 0.0014 s⁻¹; kon: 1.9e+06 M⁻¹ s⁻¹
